From patent US10533044B2, “Integrin Antagonists” (The General Hospital Corporation, priority 2014, dated 2020)
Positions of bridges follow the written chain, without caps; N, C: chain ends. Non-standard residues stand in square brackets, D forms with d. Residues, ends and D or L forms follow the SMILES beside them. hArg = N=C(N)NCCCC[C@H](N)C(=O)O; Mpa = O=C(O)CCS

Tests used:
αVβ3 = assay: AP5 LIBS expression on αVβ3^N/S or Mn2+-activated αVβ3 in presence of R-epti-D; format: cell-based; details: αVβ3^N/S in Ca2+/Mg2+ or Mn2+-activated αVβ3; preliminary study
Procedure: FIG. 16. […] One experiment was done under each condition. […] Common residues are in black. […] Spheres represent the metal ion at MIDAS.
K562-αVβ3 cells, transiently transfected HEK293T or αVβ3^+M21 cells (0.5×10^6 in 100 μl WB) were incubated in the absence or presence of unlabeled soluble FN10 (5 μg) in Ca^2+/Mg^2+ or in Mn^2+ (30 min; at 25° C.). Alexa647-labeled AP5 Fab (plus Alexa488-labeled AP3, when HEK293T cells were used), unlabeled anti-LIBS-1 (all to 10 μg/ml) or LIBS-6 ascites (to 1:50 dilution) were added, and the cells incubated for an additional 30 min before washing. APC-labeled goat anti-mouse Fc-specific antibody was added to anti-LIBS-1- or anti-LIBS-6-bound M21 cells, cells were incubated for an additional 30 min at 4° C. then washed, resuspended, fixed in 4% paraformaldehyde and analyzed by flow cytometry. LIBS epitope expression was measured and expressed as MFI (in case of K562-αVβ3 or M21 cells) and normalized (in case of HEK293T cells) by dividing its MFI by the MFI for Alexa488-labeled AP3, and multiplied by 100.

αVβ3^N/S [1] = biological target: T1, αVβ3^N/S (Homo sapiens, UniProt P05106+P06756, N365S); assay: biochemical; details: IC50, inhibition of fibrinogen binding to αVβ3^N/S, HEK293 cells, constitutively active αVβ3^N/S
αVβ3^N/S [2] = biological target: T1, αVβ3^N/S
platelet integrin αIIbβ3 = platelet integrin αIIbβ3 (Homo sapiens, UniProt P05106+P08514); details: parenteral use; cited from earlier work
Chain of platelet integrin αIIbβ3 (P08514 32-887 limits assumed): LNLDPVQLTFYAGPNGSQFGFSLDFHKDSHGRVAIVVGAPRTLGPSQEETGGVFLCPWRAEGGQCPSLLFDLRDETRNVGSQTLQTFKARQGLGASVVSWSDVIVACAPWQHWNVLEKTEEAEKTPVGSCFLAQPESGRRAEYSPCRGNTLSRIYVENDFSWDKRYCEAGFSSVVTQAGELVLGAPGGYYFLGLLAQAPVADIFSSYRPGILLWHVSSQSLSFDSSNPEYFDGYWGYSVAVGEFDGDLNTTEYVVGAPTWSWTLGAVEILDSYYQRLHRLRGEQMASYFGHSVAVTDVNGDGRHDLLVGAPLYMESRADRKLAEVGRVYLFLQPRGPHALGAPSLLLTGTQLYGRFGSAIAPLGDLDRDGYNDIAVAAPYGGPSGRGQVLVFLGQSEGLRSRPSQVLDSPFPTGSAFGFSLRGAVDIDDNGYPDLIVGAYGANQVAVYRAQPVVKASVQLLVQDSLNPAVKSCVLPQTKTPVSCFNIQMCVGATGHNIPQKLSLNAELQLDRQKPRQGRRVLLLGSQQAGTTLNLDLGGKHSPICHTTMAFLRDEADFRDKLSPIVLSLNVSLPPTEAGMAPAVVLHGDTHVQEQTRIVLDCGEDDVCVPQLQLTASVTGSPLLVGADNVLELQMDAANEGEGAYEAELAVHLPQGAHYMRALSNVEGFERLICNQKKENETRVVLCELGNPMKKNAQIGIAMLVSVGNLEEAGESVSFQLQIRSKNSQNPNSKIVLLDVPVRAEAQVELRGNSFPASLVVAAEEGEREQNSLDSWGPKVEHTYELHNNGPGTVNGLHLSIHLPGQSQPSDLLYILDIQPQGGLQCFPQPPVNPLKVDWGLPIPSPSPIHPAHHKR
Chain of platelet integrin αIIbβ3 (P08514 891-1039 partner limits assumed): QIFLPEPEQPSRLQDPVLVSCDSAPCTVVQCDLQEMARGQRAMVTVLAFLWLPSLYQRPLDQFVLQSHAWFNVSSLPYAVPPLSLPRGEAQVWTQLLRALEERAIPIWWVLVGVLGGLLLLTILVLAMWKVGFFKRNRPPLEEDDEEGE
Chain of platelet integrin αIIbβ3 (P05106 27-788): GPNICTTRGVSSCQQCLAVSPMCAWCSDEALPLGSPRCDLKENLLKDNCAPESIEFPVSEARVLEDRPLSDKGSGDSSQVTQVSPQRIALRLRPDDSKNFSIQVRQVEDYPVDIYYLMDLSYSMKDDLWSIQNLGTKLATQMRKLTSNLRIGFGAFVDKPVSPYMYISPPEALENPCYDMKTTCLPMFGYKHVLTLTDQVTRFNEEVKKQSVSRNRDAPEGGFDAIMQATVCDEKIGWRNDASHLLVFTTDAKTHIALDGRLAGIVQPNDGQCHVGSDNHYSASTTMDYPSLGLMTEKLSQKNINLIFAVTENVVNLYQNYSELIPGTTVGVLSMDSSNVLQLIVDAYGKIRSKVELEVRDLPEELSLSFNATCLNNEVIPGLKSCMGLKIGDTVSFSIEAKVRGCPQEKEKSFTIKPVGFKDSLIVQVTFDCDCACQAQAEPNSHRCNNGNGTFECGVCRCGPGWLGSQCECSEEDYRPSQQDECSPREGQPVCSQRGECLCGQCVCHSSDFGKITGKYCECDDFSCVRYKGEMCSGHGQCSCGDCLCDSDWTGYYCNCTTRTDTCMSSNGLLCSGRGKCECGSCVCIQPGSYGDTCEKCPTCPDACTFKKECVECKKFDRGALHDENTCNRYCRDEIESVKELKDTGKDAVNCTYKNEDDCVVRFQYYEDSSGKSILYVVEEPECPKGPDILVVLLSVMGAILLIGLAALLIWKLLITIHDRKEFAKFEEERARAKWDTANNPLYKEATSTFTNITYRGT

T1 sequence (P06756 31-889 limits assumed): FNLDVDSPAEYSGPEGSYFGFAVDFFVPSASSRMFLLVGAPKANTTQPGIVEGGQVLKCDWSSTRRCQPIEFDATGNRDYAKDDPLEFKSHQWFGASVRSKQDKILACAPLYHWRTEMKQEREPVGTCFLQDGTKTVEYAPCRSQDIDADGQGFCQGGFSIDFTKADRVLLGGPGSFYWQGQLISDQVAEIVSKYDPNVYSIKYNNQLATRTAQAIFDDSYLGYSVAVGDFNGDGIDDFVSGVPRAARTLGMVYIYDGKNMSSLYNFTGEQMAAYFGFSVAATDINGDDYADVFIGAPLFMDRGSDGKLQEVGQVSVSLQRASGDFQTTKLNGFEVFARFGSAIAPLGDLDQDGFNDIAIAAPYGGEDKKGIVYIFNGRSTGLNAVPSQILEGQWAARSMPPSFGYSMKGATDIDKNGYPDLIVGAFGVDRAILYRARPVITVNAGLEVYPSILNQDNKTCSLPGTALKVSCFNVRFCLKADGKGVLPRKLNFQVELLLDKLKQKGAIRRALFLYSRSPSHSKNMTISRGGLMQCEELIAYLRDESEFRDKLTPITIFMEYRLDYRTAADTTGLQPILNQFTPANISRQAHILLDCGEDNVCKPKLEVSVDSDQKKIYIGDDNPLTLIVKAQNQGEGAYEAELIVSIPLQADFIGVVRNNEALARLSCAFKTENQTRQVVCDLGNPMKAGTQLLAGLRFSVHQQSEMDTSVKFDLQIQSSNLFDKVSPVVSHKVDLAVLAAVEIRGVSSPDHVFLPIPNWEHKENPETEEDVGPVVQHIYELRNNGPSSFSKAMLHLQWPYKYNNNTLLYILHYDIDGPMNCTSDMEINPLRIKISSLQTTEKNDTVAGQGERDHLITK
T1 sequence (P06756 891-1048 partner limits assumed): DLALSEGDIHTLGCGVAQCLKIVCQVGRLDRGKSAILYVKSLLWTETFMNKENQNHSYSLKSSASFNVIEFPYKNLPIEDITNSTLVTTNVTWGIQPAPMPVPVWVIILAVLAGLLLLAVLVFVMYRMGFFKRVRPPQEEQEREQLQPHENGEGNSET
T1 sequence (P05106 27-788 N365S): as the sequence (P05106 27-788) above, with N339S counted along it

N=C(N)NCCC[C@@H]1NC(=O)CCSSC[C@@H](C(N)=O)NC(=O)[C@@H]2CCCN2C(=O)[C@@H](Cc2c[nH]c3ccccc23)NC(=O)[C@H](CC(=O)O)NC(=O)CNC1=O [R-epti-D] ([Mpa]RGD[dW]PC-NH2; disulfide 1-7)
AP5 LIBS expression (αVβ3): reduced AP5 LIBS expression | IC50 (αVβ3^N/S [1]): 2080 nM | IC50 (αVβ3^N/S [1]; converted): ~2000 nM

N=C(N)NCCCC[C@@H]1NC(=O)CCSSC[C@@H](C(N)=O)NC(=O)[C@@H]2CCCN2C(=O)[C@H](Cc2c[nH]c3ccccc23)NC(=O)[C@H](CC(=O)O)NC(=O)CNC1=O [eptifibatide] ([Mpa][hArg]GDWPC-NH2; disulfide 1-7)
Binding to αVβ3 (αVβ3^N/S [2]): does not bind | Patients with severe thrombocytopenia (platelet integrin αIIbβ3): ~2%
